In patent US20250073169A1, “POLYMER NANOPARTICLES VIA CONDENSED DROPLET POLYMERIZATION” (CORNELL UNIVERSITY, priority 2021, published 2025):

Assay: Static contact angle of liquid monomer on coated substrate (goniometer)
Type: physicochemical
Description: Contact angle and aspect ratio analysis: Contact angle measurements were performed using a Ramé-Hart Model 500 contact angle goniometer. A pipette was used to dispense 5 μL of liquid HEMA, 4VP, and DVB onto the substrate for static contact angle measurements.

[1] = 5 μL liquid monomer on flattened PPFDA base layer, n=5

Work on `C=Cc1ccncc1` [4VP, 4-vinylpyridine] yielded a contact angle [1] of 80.6±1.7 °.
For `C=C(C)C(=O)OCCO` [HEMA, 2-hydroxyethyl methacrylate], the contact angle (5 μL liquid monomer on PDVB thin film coated substrate, n=4) was 18.5±1.1 ° and the contact angle [1] was 86.4±1.0 °.
In the case of divinylbenzene [DVB], the contact angle [1] is reported as 86.5±1.6 °.
